ChEMBL document CHEMBL6087464, “Design, Synthesis, and Biological Evaluation of 3,4-Dihydroisoquinolin-1(2H)-one Derivatives as Protein Arginine Methyltransferase 5 Inhibitors for the Treatment of Non-Hodgkin's Lymphoma” (J Med Chem, 2025)

What was measured:
[1] = system: Z-138; assay: Antiproliferative activity against human Z138 cells measured after 7 days by CellTiter-Glo luminescence cell viability assay; assay type: functional, cell-based; conditions: Z-138, 168 h
[2] = target: PRMT5/MEP50 complex (Homo sapiens, UniProt O14744); assay: Inhibition of recombinant N-terminal FLAG-tagged human full-length PRMT5/full length human MEP50 extracted from baculovirus expression system using [3H]-SAM as substrate preincubated for 15 mins followed by substrate addition and measured after 60 mins by multimode plate reader analysis
Chain of PRMT5/MEP50 complex (O14744 whole entry): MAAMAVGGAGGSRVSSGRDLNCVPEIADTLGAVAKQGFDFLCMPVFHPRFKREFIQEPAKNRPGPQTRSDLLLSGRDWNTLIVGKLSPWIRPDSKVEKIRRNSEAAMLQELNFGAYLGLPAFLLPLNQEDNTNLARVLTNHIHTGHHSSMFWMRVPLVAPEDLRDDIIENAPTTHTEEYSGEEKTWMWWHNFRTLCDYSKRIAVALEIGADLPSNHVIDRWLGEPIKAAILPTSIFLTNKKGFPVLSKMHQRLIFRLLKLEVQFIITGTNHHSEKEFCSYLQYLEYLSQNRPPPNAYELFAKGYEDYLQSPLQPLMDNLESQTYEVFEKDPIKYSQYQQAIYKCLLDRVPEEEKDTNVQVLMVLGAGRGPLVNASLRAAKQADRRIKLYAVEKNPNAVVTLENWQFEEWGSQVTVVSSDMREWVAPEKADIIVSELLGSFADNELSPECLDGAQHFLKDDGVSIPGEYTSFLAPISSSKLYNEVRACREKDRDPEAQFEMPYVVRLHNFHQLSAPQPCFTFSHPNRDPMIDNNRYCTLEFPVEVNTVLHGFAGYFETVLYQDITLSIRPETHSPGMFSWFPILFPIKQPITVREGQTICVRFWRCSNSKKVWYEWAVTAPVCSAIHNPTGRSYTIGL
Chain of PRMT5/MEP50 complex (Q9BQA1 whole entry, further chain): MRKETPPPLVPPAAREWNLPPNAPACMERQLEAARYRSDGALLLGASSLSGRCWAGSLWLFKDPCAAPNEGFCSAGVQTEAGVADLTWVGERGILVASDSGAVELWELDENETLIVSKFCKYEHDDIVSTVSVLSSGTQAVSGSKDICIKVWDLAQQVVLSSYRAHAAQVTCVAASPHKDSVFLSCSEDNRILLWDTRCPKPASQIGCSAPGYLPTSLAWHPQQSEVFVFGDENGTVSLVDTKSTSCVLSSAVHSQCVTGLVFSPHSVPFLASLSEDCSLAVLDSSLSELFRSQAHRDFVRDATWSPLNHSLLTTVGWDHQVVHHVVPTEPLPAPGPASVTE

[3] = Half-life in Sprague-Dawley rat at 2 mg/kg, iv by LC-MS/MS analysis; assay type: ADME, organism-based; conditions: in vivo
[4] = AUC (0 to t) in Sprague-Dawley rat at 2 mg/kg, iv by LC-MS/MS analysis; assay type: ADME, organism-based; conditions: in vivo
[5] = MRT (0 to t) in Sprague-Dawley rat at 10 mg/kg, po by LC-MS/MS analysis; assay type: ADME, organism-based; conditions: in vivo
[6] = MRT (0 to t) in Sprague-Dawley rat at 2 mg/kg, iv by LC-MS/MS analysis; assay type: ADME, organism-based; conditions: in vivo
[7] = Cmax in Sprague-Dawley rat at 2 mg/kg, iv by LC-MS/MS analysis; assay type: ADME, organism-based; conditions: in vivo
[8] = Oral bioavailability in Sprague-Dawley rat at 10 mg/kg by LC-MS/MS analysis; assay type: ADME, organism-based; conditions: in vivo
[9] = target: Voltage-gated inwardly rectifying potassium channel KCNH2 (Homo sapiens, UniProt Q12809); assay: Inhibition of human ERG; assay type: toxicity
Chain of Voltage-gated inwardly rectifying potassium channel KCNH2 (Q12809 whole entry): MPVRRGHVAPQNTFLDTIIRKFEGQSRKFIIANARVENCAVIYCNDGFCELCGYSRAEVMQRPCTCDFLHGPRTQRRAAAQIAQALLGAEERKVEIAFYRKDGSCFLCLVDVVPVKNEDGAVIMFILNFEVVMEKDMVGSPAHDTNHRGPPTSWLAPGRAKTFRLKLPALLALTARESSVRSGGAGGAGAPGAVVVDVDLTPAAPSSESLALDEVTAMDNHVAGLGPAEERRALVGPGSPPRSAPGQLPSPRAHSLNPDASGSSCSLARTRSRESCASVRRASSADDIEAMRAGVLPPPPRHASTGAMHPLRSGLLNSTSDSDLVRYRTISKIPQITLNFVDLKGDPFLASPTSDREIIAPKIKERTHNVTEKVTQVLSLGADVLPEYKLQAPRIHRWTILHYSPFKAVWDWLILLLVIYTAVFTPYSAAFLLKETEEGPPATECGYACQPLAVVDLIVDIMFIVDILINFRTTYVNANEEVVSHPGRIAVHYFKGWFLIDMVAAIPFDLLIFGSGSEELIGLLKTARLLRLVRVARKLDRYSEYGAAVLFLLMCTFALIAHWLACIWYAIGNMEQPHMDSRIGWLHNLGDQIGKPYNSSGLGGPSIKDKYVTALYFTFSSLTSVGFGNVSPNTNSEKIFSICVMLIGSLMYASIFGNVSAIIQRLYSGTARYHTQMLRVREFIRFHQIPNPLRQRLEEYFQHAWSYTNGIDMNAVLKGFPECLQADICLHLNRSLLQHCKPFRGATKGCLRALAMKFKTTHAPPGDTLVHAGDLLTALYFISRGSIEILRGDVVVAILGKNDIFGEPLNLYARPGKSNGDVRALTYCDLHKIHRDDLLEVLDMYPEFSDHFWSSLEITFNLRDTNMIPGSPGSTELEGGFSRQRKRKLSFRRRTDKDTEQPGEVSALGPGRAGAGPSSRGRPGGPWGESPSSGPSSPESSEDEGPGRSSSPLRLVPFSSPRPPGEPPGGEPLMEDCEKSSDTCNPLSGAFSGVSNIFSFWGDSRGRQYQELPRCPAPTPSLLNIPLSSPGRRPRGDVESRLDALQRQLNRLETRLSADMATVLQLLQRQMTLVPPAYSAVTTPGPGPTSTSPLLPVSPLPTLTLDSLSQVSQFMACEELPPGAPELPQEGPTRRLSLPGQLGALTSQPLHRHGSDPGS

[10] = AUC (0 to t) in Sprague-Dawley rat at 10 mg/kg, po by LC-MS/MS analysis; assay type: ADME, organism-based; conditions: in vivo; for AUC(0-t): Sprague-Dawley
[11] = Volume of distribution in Sprague-Dawley rat at 2 mg/kg, iv by LC-MS/MS analysis; assay type: ADME, organism-based; conditions: in vivo
[12] = Tmax in Sprague-Dawley rat at 10 mg/kg, po by LC-MS/MS analysis; assay type: ADME, organism-based; conditions: in vivo
[13] = Half-life in Sprague-Dawley rat at 10 mg/kg, po by LC-MS/MS analysis; assay type: ADME, organism-based; conditions: in vivo; for half-life: Sprague-Dawley
[14] = Clearance in Sprague-Dawley rat at 2 mg/kg, iv by LC-MS/MS analysis; assay type: ADME, organism-based; conditions: in vivo
[15] = Cmax in Sprague-Dawley rat at 10 mg/kg, po by LC-MS/MS analysis; assay type: ADME, organism-based; conditions: in vivo
[16] = target: T1, Histone-arginine methyltransferase CARM1 (Homo sapiens, UniProt Q86X55); assay: Inhibition of PRMT4 (unknown origin)
T1 sequence (Q86X55 whole entry): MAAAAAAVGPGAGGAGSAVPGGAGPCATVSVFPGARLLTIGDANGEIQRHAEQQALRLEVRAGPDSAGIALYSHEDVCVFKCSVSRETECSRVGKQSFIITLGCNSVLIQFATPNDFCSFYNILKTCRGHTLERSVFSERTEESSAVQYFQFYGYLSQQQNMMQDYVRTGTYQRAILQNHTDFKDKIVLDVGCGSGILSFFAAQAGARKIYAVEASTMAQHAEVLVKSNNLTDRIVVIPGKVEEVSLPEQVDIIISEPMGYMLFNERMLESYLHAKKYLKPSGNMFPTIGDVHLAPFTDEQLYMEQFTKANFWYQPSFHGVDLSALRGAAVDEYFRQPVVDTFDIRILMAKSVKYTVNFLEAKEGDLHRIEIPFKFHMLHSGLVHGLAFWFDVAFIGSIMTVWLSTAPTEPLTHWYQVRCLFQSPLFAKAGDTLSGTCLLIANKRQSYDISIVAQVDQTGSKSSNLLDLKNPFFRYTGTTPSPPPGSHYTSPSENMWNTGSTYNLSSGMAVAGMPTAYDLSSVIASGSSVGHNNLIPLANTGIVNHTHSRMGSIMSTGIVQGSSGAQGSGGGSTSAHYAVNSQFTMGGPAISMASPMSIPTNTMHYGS

[17] = target: Protein arginine N-methyltransferase 8 (Homo sapiens, UniProt Q9NR22); assay: Inhibition of PRMT8 (unknown origin)
Chain of Protein arginine N-methyltransferase 8 (Q9NR22 whole entry): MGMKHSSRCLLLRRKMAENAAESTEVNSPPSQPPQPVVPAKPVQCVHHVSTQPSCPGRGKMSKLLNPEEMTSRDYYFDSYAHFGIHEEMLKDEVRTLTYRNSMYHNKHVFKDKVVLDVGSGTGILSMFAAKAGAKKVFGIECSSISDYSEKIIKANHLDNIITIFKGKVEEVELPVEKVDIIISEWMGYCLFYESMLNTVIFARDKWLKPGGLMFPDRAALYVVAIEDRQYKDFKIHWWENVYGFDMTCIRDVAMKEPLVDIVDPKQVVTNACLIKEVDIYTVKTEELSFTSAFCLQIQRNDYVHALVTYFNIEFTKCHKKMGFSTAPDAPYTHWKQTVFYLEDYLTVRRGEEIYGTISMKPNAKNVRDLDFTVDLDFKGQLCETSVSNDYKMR

[18] = target: T2, Protein arginine N-methyltransferase 7 (Homo sapiens, UniProt Q9NVM4); assay: Inhibition of PRMT7 (unknown origin)
T2 sequence (Q9NVM4 whole entry): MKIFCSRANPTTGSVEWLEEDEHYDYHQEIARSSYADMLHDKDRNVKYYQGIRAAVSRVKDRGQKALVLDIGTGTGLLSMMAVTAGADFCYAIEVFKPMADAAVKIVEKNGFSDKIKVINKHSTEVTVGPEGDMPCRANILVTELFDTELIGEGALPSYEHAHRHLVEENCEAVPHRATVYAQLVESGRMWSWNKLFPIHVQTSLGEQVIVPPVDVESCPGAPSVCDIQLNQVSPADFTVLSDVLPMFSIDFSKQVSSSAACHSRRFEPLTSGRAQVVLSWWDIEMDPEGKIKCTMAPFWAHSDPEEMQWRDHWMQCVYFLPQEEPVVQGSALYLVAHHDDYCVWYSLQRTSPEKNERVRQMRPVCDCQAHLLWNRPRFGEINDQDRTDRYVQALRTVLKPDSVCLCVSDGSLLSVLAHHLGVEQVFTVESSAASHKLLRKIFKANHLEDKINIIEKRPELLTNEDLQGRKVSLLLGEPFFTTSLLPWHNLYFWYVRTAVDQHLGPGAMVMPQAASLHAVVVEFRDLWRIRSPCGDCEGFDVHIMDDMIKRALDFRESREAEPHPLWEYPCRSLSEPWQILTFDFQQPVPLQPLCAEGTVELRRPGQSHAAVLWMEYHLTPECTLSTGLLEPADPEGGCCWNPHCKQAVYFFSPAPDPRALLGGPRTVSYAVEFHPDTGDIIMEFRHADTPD

[19] = target: Protein arginine N-methyltransferase 6 (Homo sapiens, UniProt Q96LA8); assay: Inhibition of PRMT6 (unknown origin)
Chain of Protein arginine N-methyltransferase 6 (Q96LA8 whole entry): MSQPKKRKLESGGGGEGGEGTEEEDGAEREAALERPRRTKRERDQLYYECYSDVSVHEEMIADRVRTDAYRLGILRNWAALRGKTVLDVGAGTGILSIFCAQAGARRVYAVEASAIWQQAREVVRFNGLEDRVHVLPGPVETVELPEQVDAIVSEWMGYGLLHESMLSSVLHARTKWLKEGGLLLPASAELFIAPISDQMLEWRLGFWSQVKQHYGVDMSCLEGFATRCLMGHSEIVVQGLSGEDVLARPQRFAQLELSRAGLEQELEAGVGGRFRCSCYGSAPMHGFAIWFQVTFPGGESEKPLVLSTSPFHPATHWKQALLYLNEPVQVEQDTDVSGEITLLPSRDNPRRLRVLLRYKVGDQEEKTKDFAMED

[20] = target: Protein arginine N-methyltransferase 3 (Homo sapiens, UniProt O60678); assay: Inhibition of PRMT3 (unknown origin)
Chain of Protein arginine N-methyltransferase 3 (O60678 whole entry): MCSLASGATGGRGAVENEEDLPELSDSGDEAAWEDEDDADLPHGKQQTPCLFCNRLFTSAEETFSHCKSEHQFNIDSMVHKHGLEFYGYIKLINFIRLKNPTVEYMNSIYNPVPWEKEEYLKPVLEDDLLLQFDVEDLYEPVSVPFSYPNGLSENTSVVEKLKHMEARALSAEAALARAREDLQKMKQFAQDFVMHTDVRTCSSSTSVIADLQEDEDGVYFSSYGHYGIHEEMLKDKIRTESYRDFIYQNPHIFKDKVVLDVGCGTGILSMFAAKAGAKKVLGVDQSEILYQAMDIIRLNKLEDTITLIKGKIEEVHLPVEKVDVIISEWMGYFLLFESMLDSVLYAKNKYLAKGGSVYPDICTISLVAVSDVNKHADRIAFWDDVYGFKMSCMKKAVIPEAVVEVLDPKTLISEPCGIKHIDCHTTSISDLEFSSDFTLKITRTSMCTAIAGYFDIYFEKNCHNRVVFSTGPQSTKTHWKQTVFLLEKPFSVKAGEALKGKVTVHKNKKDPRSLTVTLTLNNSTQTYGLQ

O=C(Nc1ccc2c(c1)C(=O)N(C[C@H](O)CN1CCc3ccccc3C1)CC21CC1)C1CCOCC1
IC50 [1]: 282 nM
IC50 [2]: 16.7 nM

CC(=O)N1CCC(Nc2ccc3c(c2)N(C[C@H](O)CN2CCc4ccccc4C2)C(=O)C3)CC1
IC50 [2]: > 10000 nM

O=C1c2cc(NS(=O)(=O)c3ccccc3)ccc2C2(CC2)CN1C[C@H](O)CN1CCc2ccccc2C1
IC50 [2]: 249 nM

O=C(Nc1ccc2c(c1)C(=O)N(C[C@H](O)CN1CCc3ccccc3C1)CC21CC1)c1ccccc1
IC50 [1]: 400 nM
IC50 [2]: 10.6 nM

O=C1c2cc(NC3CCNCC3)ccc2C2(CC2)CN1C[C@H](O)CN1CCc2ccccc2C1
IC50 [1]: 588 nM
IC50 [2]: 9.01 nM

CC(=O)N1CCC(Nc2ccc3c(c2)C(=O)N(C[C@H](O)CN2CCc4ccccc4C2)CC32CCCC2)CC1
half-life [3]: 78 min
AUC(0-t) [4]: 656 ng·h/mL
MRT last [5]: 6 min
MRT last [6]: 60 min
Cmax [7]: 943 ng/mL
bioavailability [8]: 24.2%
IC50 [9]: 350 nM
AUCt ([10]; po, 10 mg/kg): 794.2 ng·h/mL
Vd [11]: 2.8 L/kg
Tmax ([12]; po, 10 mg/kg): 6 min
t1/2 ([13]; po, 10 mg/kg): 18 min
clearance [14]: 25 mL/min/kg
Cmax ([15]; po, 10 mg/kg): 149.5 ng/mL
IC50 [1]: 10.3 nM
IC50 [2]: 22.6 nM

O=C1c2cc(NC3CCN(C(=O)C4CC4)CC3)ccc2C2(CCCC2)CN1C[C@H](O)CN1CCc2ccccc2C1
IC50 [1]: 20.5 nM
IC50 [2]: 45.5 nM

Cn1cc(C(=O)Nc2ccc3c(c2)C(=O)N(C[C@H](O)CN2CCc4ccccc4C2)CC32CCC2)cn1
IC50 [1]: 318 nM
IC50 [2]: 16.1 nM

CC(=O)N1CCC(Nc2ccc3c(c2)C(=O)N(C[C@H](O)CN2CCc4ccccc4C2)CC32CCC2)CC1
half-life [3]: 48 min
AUC(0-t) [4]: 1370 ng·h/mL
MRT last [5]: 132 min
MRT last [6]: 48 min
Cmax [7]: 1770 ng/mL
bioavailability [8]: 23.4%
IC50 [9]: 460 nM
AUC(0-t) [10]: 1600 ng·h/mL
Vd [11]: 1.6 L/kg
Tmax ([12]; Sprague-Dawley, read-out: Tmax): 18 min
half-life [13]: 210 min
clearance [14]: 25 mL/min/kg
Cmax ([15]; Sprague-Dawley, read-out: Cmax): 840 ng/mL
IC50 [1]: 3.89 nM
IC50 [2]: 26.4 nM

CC(=O)N1CCC(Nc2ccc3c(c2)C(=O)N(C[C@H](O)CN2CCc4ccccc4C2)CC32CC2)CC1
half-life [3]: 24 min
AUC(0-t) [4]: 464 ng·h/mL
MRT last [5]: 60 min
MRT last [6]: 18 min
Cmax [7]: 1560 ng/mL
bioavailability [8]: 63.1%
AUC(0-t) [10]: 1460 ng·h/mL
Vd [11]: 2.6 L/kg
Tmax ([12]; Sprague-Dawley, read-out: Tmax): 18 min
half-life [13]: 54 min
clearance [14]: 71.7 mL/min/kg
Cmax ([15]; Sprague-Dawley, read-out: Cmax): 1150 ng/mL
IC50 [1]: 4.33 nM
IC50 [2]: 18.3 nM

CC(=O)N1CCC(Nc2ccc3c(c2)C(=O)N(C[C@H](O)CN2CCc4ccccc4C2)CC3)CC1
IC50 [1]: 14.3 nM
IC50 [2]: 37.5 nM

CC(=O)N1CCC(C(=O)Nc2ccc3c(c2)C(=O)N(C[C@H](O)CN2CCc4ccccc4C2)CC32CCC2)CC1
IC50 [1]: 91.8 nM
IC50 [2]: 3.95 nM

CC(=O)N1CCC(Nc2cc3c(cn2)C2(CC2)CN(C[C@H](O)CN2CCc4ccccc4C2)C3=O)CC1
half-life [3]: 24 min
AUC(0-t) [4]: 435 ng·h/mL
MRT last [5]: 12 min
MRT last [6]: 54 min
Cmax [7]: 678 ng/mL
bioavailability [8]: 16.4%
AUC(0-t) [10]: 356 ng·h/mL
Vd [11]: 3 L/kg
Tmax ([12]; Sprague-Dawley, read-out: Tmax): 24 min
half-life [13]: 24 min
clearance [14]: 38.3 mL/min/kg
Cmax ([15]; Sprague-Dawley, read-out: Cmax): 145 ng/mL
IC50 [1]: 3.07 nM

CC(=O)N1CCC(Nc2ccc3c(c2)C(=O)N(C[C@H](O)CN2CCc4ccccc4C2)CC32CCOC2)CC1 (some centres undefined)
IC50 [2]: 116 nM

CC(=O)N1CCC(Nc2ccc3c(c2)CC(=O)N3C[C@H](O)CN2CCc3ccccc3C2)CC1
IC50 [2]: > 10000 nM

C[S+](CC[C@H](N)C(=O)[O-])C[C@H]1O[C@@H](n2cnc3c(N)ncnc32)[C@H](O)[C@@H]1O (some centres undefined) [ADEMETIONINE]
IC50 [16]: 42 nM
IC50 [17]: 759 nM
IC50 [18]: 491 nM
IC50 [19]: 1260 nM
IC50 [20]: 5170 nM
IC50 [2]: 793 nM

CC(=O)N1CCC(C(=O)N2CCC3(CC2)CCN(C[C@H](O)CN2CCc4ccccc4C2)C3=O)CC1
IC50 [2]: > 10000 nM

CC(=O)N1CCC(C(=O)Nc2ccc3c(c2)C(=O)N(C[C@H](O)CN2CCc4ccccc4C2)CC32CC2)CC1
IC50 [1]: 103 nM
IC50 [2]: 8.61 nM

Cn1cc(C(=O)Nc2ccc3c(c2)C(=O)N(C[C@H](O)CN2CCc4ccccc4C2)CC32CC2)cn1
IC50 [1]: 292 nM
IC50 [2]: 9.89 nM

CC(=O)N1CCC(Nc2ccc3c(n2)C(=O)N(C[C@H](O)CN2CCc4ccccc4C2)CC32CC2)CC1
IC50 [1]: 279 nM
IC50 [2]: 86.9 nM

CC(=O)N1CCC(C(=O)N2CCC3(CC2)C(=O)N(C[C@H](O)CN2CCc4ccccc4C2)c2ccccc23)CC1
IC50 [2]: 3060 nM
